Values after ≈ are worked out from the molar mass of the structure shown.
Key:
[1] = test system: RAW264.7; test: Antiinflammatory activity in mouse RAW264.7 cells assessed as inhibition of LPS induced iNOS-dependent nitric oxide production at 10 ug/ml after 24 hrs by Griess assay relative to control; format: functional; conditions: RAW264.7, 24 h
[2] = test system: RAW264.7; test: Antiinflammatory activity in mouse RAW264.7 cells assessed as inhibition of LPS induced iNOS-dependent nitric oxide production at 2.5 ug/ml after 24 hrs by Griess assay relative to control; format: functional; conditions: RAW264.7, 24 h
[3] = Cytotoxicity against LPS-stimulated mouse RAW264.7 cells assessed as cell viability at 5 ug/ml after 24 hrs by MTT assay relative to control; format: cell-based; conditions: LPS-stimulated RAW264.7 cells, read-out: Activity
[4] = test system: RAW264.7; test: Antiinflammatory activity in mouse RAW264.7 cells assessed as inhibition of LPS induced iNOS-dependent nitric oxide production at 1.25 ug/ml after 24 hrs by Griess assay relative to control; format: functional; conditions: RAW264.7, 24 h
[5] = test system: RAW264.7; test: Antiinflammatory activity in mouse RAW264.7 cells assessed as inhibition of LPS induced iNOS-dependent nitric oxide production after 24 hrs by Griess assay; format: functional, cell-based; conditions: RAW264.7, 24 h
[6] = test system: RAW264.7; test: Antiinflammatory activity in mouse RAW264.7 cells assessed as inhibition of LPS induced iNOS-dependent nitric oxide production at 5 ug/ml after 24 hrs by Griess assay relative to control; format: functional; conditions: RAW264.7, 24 h
[7] = Cytotoxicity against LPS-stimulated mouse RAW264.7 cells assessed as cell viability at 2.5 ug/ml after 24 hrs by MTT assay relative to control; format: cell-based; conditions: LPS-stimulated RAW264.7 cells, read-out: Activity
[8] = Cytotoxicity against LPS-stimulated mouse RAW264.7 cells assessed as cell viability at 10 ug/ml after 24 hrs by MTT assay relative to control; format: cell-based; conditions: LPS-stimulated RAW264.7 cells, read-out: Activity
[9] = Cytotoxicity against LPS-stimulated mouse RAW264.7 cells assessed as cell viability at 1.25 ug/ml after 24 hrs by MTT assay relative to control; format: cell-based; conditions: LPS-stimulated RAW264.7 cells, read-out: Activity

SMILES | IC50 [5] | inhibition at 10 µg/mL [1] | inhibition at 2.5 µg/mL [2] | viability at 24 h, 5 ug/ml [3] | inhibition at 1.25 µg/mL [4] | inhibition at 5 µg/mL [6] | viability at 24 h, 2.5 ug/ml [7] | viability at 24 h, 10 ug/ml [8] | viability at 24 h, 1.25 ug/ml [9]
COc1ccc(OC)c(/C=C/C(=O)c2cccc(O)c2)c1 | 2.42 µg/mL (≈ 8.51 µM) | 77.1% | 52.3% | 67.3% | 2.8% | 52.4% | 72.4% | 62.5% | 99%
O=C(CCc1ccc2c(c1)OCO2)c1ccc(O)cc1 | 8.72 µg/mL (≈ 32.3 µM) | 56.2% | 19.8% | 87.3% | 2% | 24.8% | 89% | 82.9% | 95.1%
COc1cccc(/C=C/C(=O)c2cccc(O)c2)c1OC | 4.83 µg/mL (≈ 17 µM) | 55.1% | 3% | 57.8% | 1.8% | 52.4% | 70.8% | 32.8% | 99.6%
COc1ccc(/C=C/C(=O)c2cccc(O)c2)c(OC)c1 | 9.42 µg/mL (≈ 33.1 µM) | 53.9% | 2.3% | 63% | 1.6% | 9% | 74% | 61.6% | 97.7%
COc1ccc(C(=O)/C=C/c2ccc(OC)cc2OC)c(O)c1 | > 10 µg/mL | 2.8% | 7.4% | 87.3% | 3.4% | 12.2% | 90.3% | 68% | 98.7%
COc1ccc(C(=O)/C=C/c2ccc3c(c2)OCO3)c(O)c1 | 1.25 µg/mL (≈ 4.19 µM) | 8.6% | 5.7% | 75.2% | 50.2% | 3% | 91.7% | 72% | 96.4%
Oc1ccc(CCCc2ccc3c(c2)OCO3)cc1 | 5.18 µg/mL (≈ 20.2 µM) | 69.4% | 37.7% | 94.5% | 33% | 48.9% | 95.7% | 92.6% | 99.2%
COc1ccc(/C=C/C(=O)c2ccc(O)c(OC)c2)cc1 | 4.88 µg/mL (≈ 17.2 µM) | 53.9% | 3.1% | 82.9% | 7.7% | 51.7% | 96% | 62.3% | 96.2%
COc1ccc(C(=O)CCc2ccc(OC)c(OC)c2OC)c(O)c1 | > 10 µg/mL | 10.3% | 2.8% | 94.8% | 0.9% | 7.5% | 94.4% | 94% | 101%
COc1cc(/C=C/C(=O)c2cccc(O)c2)ccc1O | > 10 µg/mL | 12.2% | 3.2% | 63.8% | 3% | 3.2% | 94% | 62.6% | 96.9%
COc1ccc(C(=O)/C=C/c2cc(OC)ccc2OC)c(O)c1 | > 10 µg/mL | 26.6% | 0.7% | 71.1% | 7.4% | 6.1% | 93.3% | 66.5% | 95.4%
COc1ccc(/C=C/C(=O)c2cccc(O)c2)cc1OC | 8.38 µg/mL (≈ 29.5 µM) | 65.9% | 3.3% | 83.8% | 1.7% | 3.5% | 91% | 63.9% | 101%
COc1ccc(/C=C/C(=O)c2cccc(O)c2)cc1 |  |  | 2.1% | 63.3% | 9.4% |  | 99.1% | 41.2% | 99%

More lines, main results first:

IC50 [5] | SMILES | inhibition at 10 µg/mL [1] | inhibition at 2.5 µg/mL [2] | viability at 24 h, 5 ug/ml [3] | inhibition at 1.25 µg/mL [4] | inhibition at 5 µg/mL [6] | viability at 24 h, 2.5 ug/ml [7] | viability at 24 h, 10 ug/ml [8] | viability at 24 h, 1.25 ug/ml [9]
5.05 µg/mL (≈ 16.1 µM) | COc1ccc(C(=O)/C=C/c2ccc(OC)c(OC)c2)c(O)c1 | 77.3% | 3% | 73.9% | 9.1% | 49.6% | 92.6% | 70% | 99.7%
8.69 µg/mL (≈ 30.3 µM) | COc1ccc(CCCc2ccc(OC)c(OC)c2)cc1 | 55.4% | 15.1% | 96.9% | 12.9% | 28.6% | 100% | 95.1% | 100%
6.92 µg/mL (≈ 25.4 µM) | COc1ccc(CCCc2cccc(O)c2)c(OC)c1 | 78.8% | 18% | 95.9% | 16.2% | 24.6% | 97% | 67.9% | 98.5%
9.81 µg/mL (≈ 34.3 µM) | COc1ccc(CCC(=O)c2ccc(O)c(OC)c2)cc1 | 50.7% | 12.2% | 89.8% | 2.9% | 26.1% | 92% | 86.5% | 90%
2.57 µg/mL (≈ 8.5 µM) | COc1cc(CCCc2cccc(OC)c2OC)ccc1O | 89.4% | 49.5% | 97% | 43.3% | 60.7% | 97.8% | 68.9% | 99.6%
5.08 µg/mL (≈ 18.7 µM) | COc1ccc(CCCc2ccc(O)c(OC)c2)cc1 | 89.8% | 42.9% | 96.4% | 35.9% | 49% | 97.8% | 66.3% | 99.2%
7.86 µg/mL (≈ 24.8 µM) | COc1ccc(C(=O)CCc2ccc(OC)c(OC)c2)c(O)c1 | 56.2% | 23.9% | 75.2% | 18.4% | 38.3% | 89% | 67.5% | 91.8%
> 10 µg/mL | COc1ccc(OC)c(CCCc2cccc(O)c2)c1 | 38.9% | 19.9% | 93.5% | 1.5% | 36.8% | 98.2% | 92.2% | 101%
> 10 µg/mL | COc1ccc(CCC(=O)c2ccc(OC)c(OC)c2)cc1O | 31% | 6.3% | 91.8% | 2.9% | 17.3% | 92.1% | 83.9% | 95.6%
> 10 µg/mL | COc1ccc(CCCc2cccc(O)c2)cc1OC | 44.7% | 5.4% | 94.8% | 13.9% | 15.4% | 98.5% | 78.8% | 99.9%
9.47 µg/mL (≈ 29.9 µM) | COc1ccc(CCCc2ccc(OC)c(OC)c2)cc1OC | 52% | 12.7% | 95.6% | 8.4% | 26.1% | 97.4% | 94.9% | 99%
8.79 µg/mL (≈ 29.1 µM) | COc1ccc(CCCc2cccc(OC)c2OC)c(O)c1 | 54.4% | 30.3% | 95.2% | 21.5% | 30.7% | 99% | 63% | 99.1%
> 10 µg/mL | COc1ccc(CCCc2ccc3c(c2)OCO3)c(OC)c1 | 44.6% | 20.1% | 97.2% | 16.9% | 28% | 97.7% | 94.7% | 99.1%
6.71 µg/mL (≈ 22.2 µM) | COc1ccc(CCCc2ccc(OC)cc2OC)c(O)c1 | 70% | 26.9% | 91.5% | 10.4% | 35.2% | 97.7% | 25.8% | 100%

Reference: ChEMBL document CHEMBL4004877, “Synthesis and biological evaluation of chalcone, dihydrochalcone, and 1,3-diarylpropane analogs as anti-inflammatory agents” (Bioorg Med Chem Lett, 2017)
